Assay [1] deals with P. falciparum culture. Description: Growth inhibition assay, [3H] hypoxanthine incorporation. It counts as cell-based, Plasmodium falciparum. An excerpt:
Culture media with or without inhibitors was changed daily. Parasites were synchronized at the ring stage with 5% D-sorbitol for all and the cultures were pooled at ring or trophozoite stage with 12-15% parasitemia. Free parasites were released from the red blood cells with 0.15% saponin.
The growth of P. falciparum was quantified by measuring the incorporation of [^3H] hypoxanthine.

Assay [2] deals with T1, PfENR (Plasmodium falciparum, UniProt Q9BH77).
T1 construct: The overexpression of PfENR was carried out [22]; made in house
Format: biochemical. To be noted: triclosan with PfENR in presence of the catechin. Here is the method:
The reaction was started by the addition of 50 nM of PfENR.
The reaction was monitored at 340 nm and the formation of (NAD^+) was plotted as a function of time using equation 3 to get the dissociation constant by non-linear regression analysis of the data.
Progress curves gave the value of kobs and the k5 or association rate constants were determined by fitting the values of kobs with experimentally determined k6 values in equation 4.
The relationship between Ki, k5, k6 and kobs is described by equation 4.
The overall inhibition constant Ki* is calculated by equation 5.

Assay [3] concerns the target T2, Plasmodium falciparum enoyl-Acyl carrier protein (ACP) reductase (PfENR) (Plasmodium falciparum, UniProt Q9BH77).
T2 sequence (Q9BH77 22-432): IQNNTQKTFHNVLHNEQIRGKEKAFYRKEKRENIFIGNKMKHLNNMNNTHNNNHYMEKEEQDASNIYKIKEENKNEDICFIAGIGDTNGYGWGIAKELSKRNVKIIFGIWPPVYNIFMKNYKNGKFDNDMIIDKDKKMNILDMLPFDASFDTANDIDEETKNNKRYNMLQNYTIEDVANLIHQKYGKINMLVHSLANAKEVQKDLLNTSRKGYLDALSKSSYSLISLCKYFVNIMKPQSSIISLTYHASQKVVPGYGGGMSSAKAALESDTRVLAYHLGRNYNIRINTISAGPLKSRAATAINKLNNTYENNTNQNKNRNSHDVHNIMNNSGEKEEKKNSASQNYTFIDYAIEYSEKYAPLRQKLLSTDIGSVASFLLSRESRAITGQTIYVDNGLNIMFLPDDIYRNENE
Description: biochemical. To be noted: for Ki: Dixon plot.
Description: Enzyme assays and inhibition studies were performed on a UV-Vis spectrophotometer (Jasco) at 25° C. in 20 mM Tris/HCl pH 7.4 containing 150 mM NaCl [13, 14]. The standard reaction mixture of 100 μl contained 200 μM crotonoyl-CoA, 100 μM NADH and 30 nM PfENR. All the inhibitors were dissolved in DMSO. 1% V/V DMSO was used in the standard reaction mixture. The reaction proceeds by reduction of crotonoyl-CoA to butyl-CoA with the oxidation of NADH to NAD^+ which is monitored at 340 nm (□∈^M340=6220 M−1 cm−1).
IC50 values of the tea catechins and polyphenolic compounds for PfENR were determined by plotting the percent inhibition of PfENR at various concentrations of inhibitory compounds. […] The percent activity thus calculated was plotted against log of concentration of respective catechins. The data was analyzed by nonlinear regression method using sigmoidal model and IC50 values for each catechin was calculated from the sigmoidal curve.
The sigmoidal curve indicates the best fit for the data.
Ki of individual catechins with respect to NADH and crotonoyl-CoA were determined in separate experiments. […] All the data were analyzed by Dixon plot [8].
All the data of individual experiments were repeated thrice and the mean value was taken for data analysis. The Ki values were determined for each experiment from the X-intercept of the Dixon plot [8].
The data were plotted using the following Dixon equations for competitive and uncompetitive kinetics, respectively.

For assay [4], the target named is T3, human aldose reductase (ALR2) (Homo sapiens, UniProt P15121).
T3 construct: hexa-His (cleaved yes); made in house; host or cells: E. coli BL-21(DE3)
Description: Fluorescence quenching dissociation constants with aldose reductase. Format: binding. Here is the method:
The cloning of human ALR2 gene was done as described before with slight modification. In brief, the open reading frame of the human AR2 gene (Accession GenBank/EMBL Data Bank number J05017) was amplified by the polymerase chain reaction from its cDNA and cloned into the T7 RNA polymerase-based vector pET28a(+) vector (Novagen). The positive clone was sequenced and then transformed into BL-21(DE3) cells for expression. The culture (5 L) was grown at 37° C. till OD600 of 0.8, induced by 1 mM IPTG and grown further at 37° C. for next 3 h. The cells were pelleted, sonicated and the clear supernatant was loaded to Ni-NTA resin. The purified hexa-His tagged human AR2 was subjected to thrombin cleavage and loaded […]. The His-tag cleaved AR2 was further loaded on DEAE Sephadex A-50 column (Pharmacia) and eluted with an NaCl gradient. The purity of the final enzyme preparation was checked on 12% SDS-PAGE.
Ki in all the four cased were calculated strictly using equations mentioned in Example 11.

Assay [5] has as its target T1, PfENR. Format: binding. To be noted: equation 7.
Description: The excitation and emission monochromator slit widths were adjusted at 3 nm. All the reactions were performed in 3 ml quartz cuvette with constant stirring at 25° C. For the binding studies, 4 μM PfENR was incubated with different tea compounds at their saturating concentrations in 20 mM tris and 150 mM NaCl, pH 7.4, excited at 295 nm and change in the fluorescence intensity at the emission maximum of PfENR (340 nm) was recorded.
For tight binding inhibitors k6 can be considered negligible at the early onset of inhibition. So, k5 can be directly calculated from the following equation [13],
The samples were excited at 290 nm and the emission was recorded at 340 nm.
Before calculating Ki and k5 from fluorescence data, the corrections for inner filter effect were made using equation 8.
Assay [6] has as its target T1, PfENR. Format: binding. To be noted: 1 μM [3H]EGCG. The protocol:
Binding studies of [^3H] […] Briefly, for gel filtration chromatography, 2 ml Sephadex G-25 column was packed and equilibrated with the reaction buffer. For each run 50 μl of the reaction mixture was loaded and 20 fractions of 100 μl were collected at 0.25 ml/min flow rate. All the fractions were spotted on Whatman 3 filter paper and dried before taking the counts. In the filter binding assay method, the reaction mixtures were directly applied on the activated Polyvinylidene difluoride (PVDF) membrane fixed in a filtration assembly. The filters were washed with 200 μl of reaction buffer and dried. Dried filters were transferred to vials containing 5 ml scintillation fluid and the radioactivity measured using a Hewlett Packard liquid scintillation counter.
To check the binding of [^3H] […] The concentration of [^3H]
[^3H] […] (FIG. 4d) Double reciprocal plot of the same data is shown in the inset.
The binding constants for the above experiments were determined from saturation plots and by Scatchard plot or double reciprocal plot using equation 2a and 2b described under evaluation section.

Assay [7] deals with E. coli O55:B5. Put plainly: Survival of mice post bacterial infection. Format: in vivo, E. coli in BALB/c mice. To be noted: BALB/c mice, 10^7 CFU E. coli O55:B5, D-galactosamine primed; triclosan 40 mg/kg, EGCG 50 mg/kg. Here is the method: Agents and Chemother. 12, 3859-3866 (2003) which is detailed below:—
Third group of animals received injections of both Triclosnan and ECGC as above. Controlled group was injected PBS and/or ethanol (500 μl).
For each experiment 6 BALB/c male mice, 6-9 week of age per group were used.
Infection of animals by bacteria: The animals were injected i.p or s.c with 0.4 ml of pyrogen free saline containing 10^7 CFU of bacteria (E. coli O55:B5) and primed with D-galactosamine (300 mg/kg of body weight); (Galanos at al. (1979) Proc. Natl. Acad. Sci. USA, 76, 5939-5943).
The mice was monitored for survival on an hourly basis.

In assay [8] the test system is fatty acid synthesis in P. falciparum cultures. Put plainly: Incorporation of [14C] acetate into fatty acids in P. falciparum cultures. It counts as cell-based. Conditions: Plasmodium falciparum. Here is the method:
Fatty acid synthesis in P. falciparum cultures and the effect of a 2′-dihydroxyphenyl ether indicated in formula 1 and 2 with or without flavonoid was evaluated by incorporating [14C] acetate into fatty acids [Surolia and Surolia Nature Medicine, (2001) 7, 167-173].

In assay [9] the test system is P. berghei. Put plainly: Four day suppressive test, survival of P. berghei infected mice. Format: in vivo, P. berghei in Balb/c mice. Conditions: P. berghei infected Balb/c mice; triclosan 20 mg/kg, EGCG 30 mg/kg, 4 days. Here is the method:
Randomly bred male Balb/c mice, 6 in numbers, weighing 22-25 grams were inoculated intravenously with 10 million P. berghei parasitized red blood cells. […] Giemsa-stained blood smears for 5 days and thereafter was prepared from the infected animals to assess percentage parasitemia. The survival of the mice was monitored for the following week.

Where [10] appears, read: Plasmodium falciparum, Erythrocyte, growth of malaria culture in red blood cells, read-out: IC50 on P. falciparum culture.
[11] abbreviates: Ki in presence of TCL [nM], Ki of the catechin at 50 nM and 100 nM triclosan.
Setting [12] is: Ki w.r.t. NADH [μM], competitive, NADH 50, 100, 200 μM, crotonoyl-CoA 200 μM.
Setting [13] is: Ki w.r.t. crotonoyl-CoA [μM], uncompetitive, NADH 100 μM.
Where [14] appears, read: binary complex, read-out: Ki with ALR2.

Read-outs that look alike come from different tables or passages of the source.

Broadly, the IC50 is the point on the concentration scale where inhibition reaches its midpoint. One may read the Ki as a dissociation constant, usually derived from enzyme kinetics or from competition with a known ligand. Take `Oc1cc(O)c2c(c1)O[C@H](c1cc(O)c(O)c(O)c1)[C@H](O)C2` [EGC, (−) epigallocatechin]: the results for the IC50 in assay [1] (setting [10]) and in assay [3] were 211000 nM and 7000 ± 85 nM, respectively. For the same compound, in [2], the “Association rate constant k5 of triclosan” value (“Association rate constant k5” below) was 5.4 ± 0.097 [10^−3]s^−1. Besides, the Ki came to 17.6 ± 0.67 nM in [3] (setting [11]), 3750 ± 54 nM in assay [3] (setting [12]) and 2000 ± 78 nM in assay [3] (setting [13]).

In the case of `O=C(O[C@@H]1Cc2c(O)cc(O)cc2O[C@@H]1c1ccc(O)c(O)c1)c1cc(O)c(O)c(O)c1` [ECG, (−) epicatechin gallate], the IC50 came out at 4700 nM in [1] (Plasmodium falciparum, Erythrocyte, read-out: IC50 on P. falciparum culture) and 500 ± 16 nM in assay [3]. Besides, the “Association rate constant k5” value in [2] is 6.3 ± 0.135 [10^−3]s^−1. Moreover, the inhibitory constant (Ki) in assay [3] (setting [11]) is 16 ± 0.45 nM; in assay [3] (setting [12]), 291 ± 7.6 nM; in [3] (setting [13]) it was 102 ± 4.6 nM.

Consider `O=c1c(O)c(-c2ccc(O)c(O)c2)oc2cc(O)cc(O)c12` [Quercetin, quercetin], for which the values for the IC50 in assay [1] (setting [10]) and in assay [3] were 20700 nM and 2500 ± 78 nM, respectively. Also, the “Association rate constant k5” value in [2] was 3.1 ± 0.0786 [10^−3]s^−1. The figures for the Ki in assay [3] (setting [11]), in [3] (setting [12]) and in assay [3] (setting [13]) were 22 ± 0.85 nM, 1090 ± 89 nM and 473 ± 11 nM, respectively.

Regarding `O=C(/C=C/c1ccc(O)c(O)c1)c1ccc(O)cc1O` [Buteine, butein], the half-inhibitory concentration (IC50) in assay [1] (setting [10]) was 49700 nM; in [3], 12500 ± 670 nM. The “Association rate constant k5” value in assay [2] was 2.1 ± 0.108 [10^−3]s^−1. Also, the Ki in assay [3] (setting [11]) was 14 ± 0.57 nM; in [3] (setting [12]) it was 5500 ± 100 nM; in assay [3] (setting [13]), 2970 ± 77 nM.

As to (−) epigallocatechin gallate [EGCG], in assay [1] (growth of malaria culture in red blood cells, read-out: IC50 on P. falciparum culture), the IC50 came to 191000 nM.

For the compound `CCN(CC)CCCC(C)Nc1ccnc2cc(Cl)ccc12` (stereo not shown) [chloroquine, reference compound], the IC50 in assay [1] (Plasmodium falciparum, read-out: IC50 for chloroquine, strain MP-14) was determined as 300 nM; in assay [1] (Plasmodium falciparum, read-out: IC50 of chloroquine, strain FCK2), 18 nM.

The term Kd denotes a measure of binding affinity in units of concentration. Turning to `O=CC(O)CO` (stereo not shown) [Glyceraldehyde, glyceraldehyde], the “fold decrease of Kd of glyceraldehyde by quercetin” value in assay [4] (2 μM quercetin) is recorded as “more than 10 fold”. Moreover, the Kd in assay [4] (Kd of glyceraldehyde in the presence of quercetin, 2 μM quercetin) was found to be 40000 nM; in assay [4] (without quercetin, read-out: Kd of glyceraldehyde with aldose reductase) it was 510000 nM. Moreover, in assay [4] (setting [14]), the inhibition constant Ki was 510000 ± 54000 nM.

In general, inhibition refers to the change of the read-out against control, counted positive when it falls. A lower inhibition goes with a response near the control. On to `Oc1cc(Cl)ccc1Oc1ccc(Cl)cc1Cl` [Triclosan, 5-chloro-2-(2,4-dichlorophenoxy)phenol], for which the “k5 of triclosan in presence of EGCG from slow decrease of fluorescence” value in assay [5] is 0.0072±0.84×10^−5 s^−1. In addition, in assay [6], the “Association constant of triclosan, double reciprocal plot” value came out at 14 ± 0.77 µM⁻¹ and the “Association constant of triclosan, saturation kinetics” value is 22.18 ± 1.7 µM⁻¹. Besides, the “Survival Time” value in assay [7] was determined as 45 ± 6 h. The compound also gave an inhibition at 9 µM in assay [8] of 90%. In assay [9], the “Mice surviving from a group of 6 on Day 6” value was found to be 3 ± 1 and the “Mice surviving from a group of 6 on Day 12” value is listed as 1 ± 1.

For the compound `O=CC1CCCCC1` [1-Cyclohexylaldehyde], the Ki in assay [4] (setting [14]) stood at 330000 ± 45000 nM; in [4] (read-out: Ki value in the presence of quercetin, 2 μM quercetin preincubated), 14.1 ± 3.1 nM.

Source of the values: patent US20080161247A1, “Synergistic composition for modulating activity of substrate analogs for NAD+, NADP+, NADH or NADPH dependent enzymes and process thereof” (priority 2006, published 2008).
